Earlier results in article PMC12854702 (Synlett : accounts and rapid communications in synthetic …, 2025).

Legend:
human SLACK = conditions: Tl+-flux, HEK-293 cells stably expressing human SLACK
[1] = system: serotonin 5-HT2A receptor

- antagonism of dopamine D2 receptor (dopamine D2 receptor): potent antagonist
- antagonism of serotonin 5-HT2A receptor [1]: potent antagonist
- antagonism of histamine H1 receptor (histamine H1 receptor): potent antagonist
SMILES: CN1CCN(C2=Nc3ccccc3Oc3ccc(Cl)cc32)CC1 [loxapine]
- SLACK activation Emax (human SLACK): 100%
